How the values were obtained:
[1] = tested on: NY-ESO-1+ MDA-MB-468 cells; assay: HLA presentation on NY-ESO-1+ MDA-MB-468 cells (flow cytometry, confocal); format: cell-based, human; conditions: for HLA-A2 antigen presentation (confocal images): 1 μM, 48 h, FIG. 4F; for HLA levels on MDA-MB-468 cells (MFI): flow cytometry
Description: Flow Cytometry: Sample acquisition was done using LSR Fortessa X-20 or LSR Fortessa (BD Biosciences) and data were analyzed using FlowJo v10.6.0 software. Live/dead cells were assessed using SYTOX Blue (Invitrogen, Dilution 1:100). For cell staining involving cell permeabilization, the BD cytofix/cytoperm fixation permeabilization kit (BD Biosciences) was used. The PBS buffer containing 0.5% BSA and 10% FBS were used to dilute antibodies. The antibodies used in flow cytometrical analyses include: […] The compensation was performed using CompBeads for negative control (BD Biosciences), anti-mouse Ig,κ (BD Biosciences), anti-rat Ig,κ and anti-hamster Ig,κ (BD Biosciences). The beads were stained with the corresponding antibodies separately under the same conditions as the cells were stained in each experiment. SYTOX Blue reagent was used to stain dead cells. Half of the live cells were incubated at 60° C. for 2 min to enable membrane permeable and then mixed with the other half incubated at 37° C. The mixed cells were stained with SYTOX Blue for 15 mins and used for compensation. For all the data analysis, doublet exclusion was performed and only single cells were analyzed. Dead cell populations were also excluded from analysis if the experiment were not involved in cell killing. One million events per sample were collected for immune profiling analysis in the animal experiments. For all in vitro experiments, at least ten thousand events per sample were collected for flow cytometry analysis. Confocal Microscopy: OVA+ EO771 and NY-ESO-1+ MDA-MB-468 cells were seeded at 5×10^3 cell/well in the 8-well slide (Millicell EZ slide, […]) and treated with 1 μM drug (GSK-LSD1, CUDC-101 or BML-210) for 48 h. FITC-conjugated anti-mouse H-2Kb antibody (Biolegend, dilution 1:50) and FITC-conjugated anti-HLA-A2 (Biolegend, dilution 1:50) were used to stain OVA+ EO771 and NY-ESO-1+ MDA-MB-468 cells, respectively, for 2 h. For cell nucleus staining, cells were incubated with 0.5% Triton X-100/PBS for 10 min and stained with DAPI (Sigma-Aldrich, dilution 1:100) for 15 min. The slides were rinsed in PBS twice and mounted with ProLong Gold anti-fade mountant (Invitrogen, P36930). Fluorescence images were captured using Leica TCS SP8 (upright high speed multiphoton) confocal imaging system. 3-D images were analyzed by the Imaris x64 8.1.2 software.

[2] = tested on: PDOs from breast cancer patients; assay: Patient-derived organoids co-cultured with autologous CD8+ T cells; format: cell-based, human; conditions: for T cell cytotoxicity: PDO2 and PDO7
Description: Breast tumor organoid culture: Single cells isolated from EO771-derived tumors in tumor-bearing C57BL/6 mice were suspended into cold mouse breast cancer culture medium containing 10% Matrigel (Corning) with a concentration of 2×10^5 cells ml^−1. The cells (2 ml) were seeded into each well of pre-warmed 6-well microplate with ultra-low attachment surface (Corning) and cultured at 37° C. with 5% CO2. The same volume of fresh culture medium was added every other day. After 7-day culture, tumor organoids were collected using cell strainers with pore size of 70 and 150 μm. For human tumor organoid culture, 2 ml of NY-ESO-1+ MDA-MB-468 cells with a concentration of 2×10^5 cells ml-1 were seeded into each well of the prewarmed 6-well microplate with ultra-low attachment surface. The cells were cultured for two days to generate tumor spheroids. The resulting spheroids were mixed with cancer associated fibroblasts (CAFs) with a ratio of 2:1 (tumor cells versus CAFs) and cultured in the human breast cancer organoid culture medium3 for 5 days. Finally, the MDA-MB-468 tumor organoids with diameter of 70˜150 μm were used for co-culture with NY-ESO-1-specific human CD8+ T cells (ASTARTE Biologics). Patient-derived organoids (PDOs) were cultured following the same procedures as mouse EO771 tumor organoids using human breast cancer organoid culture medium.
Cytotoxicity of CD8+ T cells in the co-culture with tumor organoids We generated mouse EO771 (Luc+OVA+) cell line that presents OVA257-264 antigen (from chicken ovalbumin) and human MDA-MB-468 (NY-ESO-1+) cell line that presents NY-ESO-1 antigen for use in the T cell-mediated cytotoxicity assay. OVA-specific CD8+ T cells were isolated from the spleen of OT-I mouse that contains transgenic inserts of Tcra-V2 and Tcrb-V5 genes. The transgenic T cell receptor can recognize the ovalbumin peptide SIINFEKL (OVA257-264; SEQ ID NO: 55). Anti-NY-ESO-1 human CD8^+ T cells (CELLERO™) were used to recognize the NY-ESO-1+ MDA-MB-468 cells. Autologous human CD8+ T cells were isolated from patient tumor tissues and amplified in the DMEM/F12 medium supplemented with 10% FBS, 2 mM Ultraglutamine I, 1% penicillin/streptomycin and 10 ng mL-1 of human IL2 for 7 days. The CD8+ T cells were stimulated by the T-activator CD3/CD28 Dynabeads (Gibco, 11452D for mouse and 11131D for human) for 48 h prior to use for cytotoxicity assay. Mouse and human tumor organoids with diameter between 70 and 150 μm were collected and mixed with corresponding CD8+ T cells in DMEM/F12 medium supplemented with 10% FBS, 2 mM Ultraglutamine I, 1% penicillin/streptomycin and 10 ng mL-1 IL2 (Biolegend, mouse: 575402; human: 589102) at a ratio of organoids versus T cells at 1:200 in the microplates with ultra-low attachment surface. The cells were co-cultured for 24 h and subject to further analyses, such as optical and fluorescence imaging, luciferase assay or flow cytometry.
There is an unmet clinical need to predict responsiveness to new cancer immunotherapy. Both syngeneic mouse models and humanized patient-derived xenograft (PDX) models are time-consuming and not cost-efficient. Here, we wanted to apply the standardized tumor organoid model in this study to predict the therapeutic responses to BML-210, CUDC-101 and GSK-LSD1. In this setting, autologous CD8+ T cells were isolated from patient tumor tissues and amplified for a week. Patient-derived organoids (PDOs) were generated from 10 patients with breast cancer (Table 2). The PDOs from each patient were characterized and compared with their originating tumors using Hematoxylin and eosin (H&E) staining and immunofluorescence imaging analysis. EpCAM and SMA were used as biomarkers to identify tumor epithelial cells and cancer-associated fibroblast cells, respectively, which are the main components of a breast tumor tissue. […] We were able to isolate reasonable numbers (>1×10^5) of autologous T cells from 8 out of 10 breast tumor tissues. […]

[3] = PDO1, PDO3, PDO4, PDO5 and PDO8, 48 h pretreatment

With Nc1ccccc1NC(=O)CCCCCCC(=O)Nc1ccccc1 [BML-210] the “HLA-A2 antigen presentation (confocal images)” value (shortened to “HLA-A2 antigen presentation”) [1] was “boosted up the antigen presentation”, the “HLA levels on MDA-MB-468 cells (MFI)” value [1] was “much higher levels” and the T cell-mediated cytotoxicity [2, 3] was “significantly higher T cell-mediated cytotoxicity”. The T cell cytotoxicity [2] was “only moderate increases (statistically not significant)” and the T cell-mediated cytotoxicity ([2]; PDO6) was “higher T cell-mediated cytotoxicity”.

With C#Cc1cccc(Nc2ncnc3cc(OC)c(OCCCCCCC(=O)NO)cc23)c1 [CUDC-101] the “HLA-A2 antigen presentation” value [1] was “boosted up the antigen presentation”, the “HLA levels on MDA-MB-468 cells (MFI)” value [1] was “increased” and the T cell-mediated cytotoxicity [2, 3] was “significantly higher T cell-mediated cytotoxicity”. The T cell cytotoxicity [2] was “only moderate increases (statistically not significant)” and the T cell-mediated cytotoxicity ([2]; PDO6) was “modest effect”.

With c1ccc([C@@H]2C[C@H]2NC2CCNCC2)cc1 [GSK-LSD1] the “HLA-A2 antigen presentation” value [1] was “boosted up the antigen presentation”, the “HLA levels on MDA-MB-468 cells (MFI)” value [1] was “increased” and the T cell-mediated cytotoxicity [2, 3] was “significantly higher T cell-mediated cytotoxicity”. For the same molecule, the T cell cytotoxicity [2] was “only moderate increases (statistically not significant)” and the T cell-mediated cytotoxicity ([2]; PDO6) was “higher T cell-mediated cytotoxicity”.

— patent US20240299321A1, “METHODS TO SENSITIZE CANCER CELLS AND STANDARDIZED SCREENING ASSAY FOR IMMUNOTHERAPY” (THE TRUSTEES OF INDIANA UNIVERSITY, priority 2020, published 2024)
